Reference: patent US20230339882A1, “SHP2 INHIBITOR AND COMPOSITION AND APPLICATION THEREOF” (Betta Pharmaceuticals Co., Ltd., priority 2020, published 2023)

Key:
SHP2 = SHP2 (Homo sapiens (Human), UniProt Q06124); test: SHP2 allosteric inhibitory enzyme activity assay (DiFMUP fluorescence); type: biochemical; conditions: read-out: SHP2 enzymatic activity IC50
Description: Example A: SHP2 Allosteric Inhibitory Enzyme Activity Assay
SHP2 is allosterically activated by binding of a bis-tyrosyl-phosphorylated peptide to its Src homology 2 (SH2) domain. This later activation step results in the release of the autoinhibitory interface of SHP2, which in turn activates the SHP2 protein tyrosine phosphatase (PTP) and is available for substrate recognition and reaction catalysis. The catalytic activity of SHP2 was monitored using the surrogate DiFMUP in a rapid fluorescence assay format.
experiment procedure: • (1) Compound preparation: • The compounds of the present invention (10 mM stock solution) were diluted to appropriate times with 100% DMSO, and the final test concentrations of the compounds of the present invention were 10 µM, 3.3333 µM, 1.1111 µM, 0.3704 µM, 0.1235 µM, 0.0412 µM, 0.0137 µM, 0.0046 µM, 0.0015 µM, 0.00 µM; • (2) Prepare the enzyme reaction working solution: • Perform SHP2 enzymatic assays in 96-well black polystyrene plates (flat bottom, low flange, non-binding surface) (Perki Elmer, Cat#6005270) at room temperature using a final reaction volume of 50 µL and the following assay buffer conditions: 60 mM HEPES, 75 mM NaCl, 75 mM KCl, 0.05% BRIJ-35, 1 mM EDTA, 5 mM DTT. • (3) Enzyme-catalyzed reaction and data monitoring: • Add the compound of the present invention to the corresponding 96-well plate, and set the blank test well without compound and enzyme only with buffer. Thaw SHP2 Activating Peptide (IRS1_pY1172(dPEG8)pY1222) on ice, add 25 µM to each well, then add 0.2 ng of SHP2 protein sample to the corresponding well plate and incubate at room temperature for 1 hour. The surrogate substrate DiFMUP (Invitrogen, Cat #D6567) was added to the reaction and allowed to react for 1 hour at room temperature. Fluorescence signals were monitored using a microplate reader (Envision, Perki Elmer) using excitation and emission wavelengths of 340 nm and […], respectively. • (4) Data analysis: • Calculation Formula: • [formula]
Among them: Conversion_sample is the conversion rate reading of the sample; Conversion_min is the average value of blank control wells, representing the conversion rate readings of wells without enzymatic activity; Conversion_max is the mean ratio of positive control wells, representing the conversion rate readings of wells without compound inhibition. The log(inhibitor) vs. response-Variable slope of the analysis software GraphPad Prism was used to fit the dose-response curve, and the IC50 value of the compound for the enzymatic activity was calculated.

leukemia cells MV-4-11 = test: Cell proliferation assay, CELL TITER-GLO (CTG) luminescence, MV-4-11; type: cell-based
Procedure: (§1) Example B: Cell Proliferation Assay
(§2) The effects of the compounds of the invention on the proliferation of leukemia cells MV-4-11 and lung cancer cells NCI-H358 were evaluated using in vitro cell assays. The detection method used in the experiment is the CELL TITER-GLO (CTG) luminescence method, which can detect the number of viable cells by quantifying ATP. Because ATP participates in a variety of enzymatic reactions in vivo, it is an indicator of the metabolism of living cells, and its content directly reflects the number and state of cells. During the experiment, CellTiter-Glo™ reagent was added to the cell culture medium to measure the luminescence value. The value is proportional to the amount of ATP, and ATP is positively related to the number of living cells, so the cell viability can be examined by detecting the ATP content.
(§3) experiment procedure: • (1) Cell plating: • Take a bottle of MV-4-11 cells in logarithmic growth phase, resuspend the cells by centrifugation and count them. After adjusting the cell density, they were seeded into a 96-well plate (Corning #3917). After culturing in a 5% CO2 incubator for 24 hrs, the compound of the present invention was added for treatment; • Take a bottle of NCI-H358 cells in logarithmic growth phase, digest and resuspend the cells, count them, adjust the cell density, and inoculate them into a 96-well transparent ultra-low adsorption cell culture plate (Corning #3474), inoculate 2000 cells per well. The plate was placed in an incubator at 37° C. and 5% CO2 for 24 hrs, and then the compound of the present invention was added for treatment; • (2) Cell compound treatment: • An appropriate amount of the compound of the present invention was prepared for cell treatment. The final concentration of the compound from high to low was 1000 nM, 333.3 nM, 111.1 nM, 37.04 nM, 12.35 nM, 4.115 nM, 1.372 nM, 0.4572 nM, 0.1524 nM, and 0 nM. The plate was placed in a 37° C., 5% CO2 incubator for 120 hrs. Only adding medium without cell wells was set as the blank group; the group with compound concentration of 0 nM was the zero-adjusting group. • (3) CTG detection: • After NCI-H358 cells were cultured for 96 hrs, 50 µL of CellTiter-Glo® Luminescent Cell Viability Assay solution was added to each well, shaken gently for 2 mins, and incubated at room temperature for 10 mins. The cell reaction system was transferred to a white-bottomed 96-well plate. Read the detection value of each well on a multi-function microplate reader. • After MV-4-11 cells were cultured for 120 hrs, 50 µL of CellTiter-Glo® Luminescent Cell Viability Assay solution was added to each well, gently shaken for 2 mins, and incubated at room temperature for 10 mins. Check the value. • (4) Data analysis: • Calculate the inhibition rate from the luminescence value readings, • [formula]
(§4) The log(inhibitor) vs. response-Variable slope of GraphPad Prism was fitted to dose-response curves and IC50s of compounds that inhibited cell proliferation were calculated.

[1] = system: lung cancer cells NCI-H358; test: Cell proliferation assay, CELL TITER-GLO (CTG) luminescence, NCI-H358; type: cell-based; conditions: cultured for 96 hrs
Procedure: as §1, §2, §3, §4

[2] = Homo sapiens, MV4-11, cultured for 120 hrs
[3] = Homo sapiens, NCI-H358, ultra-low adsorption plate

Row | SMILES | IC50 (SHP2) [nM] | IC50 (leukemia cells MV-4-11; [2]) [nM] | IC50 [1, 3] [nM] | IC50 (leukemia cells MV-4-11; cultured for 120 hrs) [nM] | IC50 ([1]; ultra-low adsorption plate) [nM]
1 | N[C@@H]1c2ccccc2CC12CCN(c1ncc(C#CCOc3ccccc3)nc1CO)CC2 [Compound A01, (S)-(3-(1-amino-1,3-dihydrospiro [indene-2,4′-piperidine]-1′-yl)-6-(3-phenoxyprop-1-yn-1-yl)pyrazin-2-yl)methanol] | 1.2 | 2.6 | 7.3 | – | –
2 | COc1cccc(OCC#Cc2cnc(N3CCC4(CC3)Cc3ccccc3[C@H]4N)c(CO)n2)c1 [Compound A02, (S)-(3-(1-amino-1,3-dihydrospiro [indene-2,4′-piperidine]-1′-yl)-6-(3-(3-methoxyphenoxy)prop-1-yn-1-yl)pyrazin-2-yl) methanol] | 0.7 | 5 | 7.8 | – | –
3 | Nc1cccc(OCC#Cc2cnc(N3CCC4(CC3)Cc3ccccc3[C@H]4N)c(CO)n2)c1 [Compound A03] | 1.1 | – | – | 1.5 | 2.5
4 | CC(=O)Nc1cccc(OCC#Cc2cnc(N3CCC4(CC3)Cc3ccccc3[C@H]4N)c(CO)n2)c1 [Compound A04, (S)-N-(3-((3-(5-(1-amino-1,3-dihydrospiro[indene-2,4′-piperidin]-1′-yl)-6-(hydroxymethyl)pyrazin-2-yl)prop-2-yn-1-yl)oxy)phenyl)acetamide] | 2.9 | 3.6 | 4 | – | –
5 | N[C@@H]1c2ccccc2CC12CCN(c1ncc(C#CCOc3cccc(Cl)c3F)nc1CO)CC2 [Compound A05, (S)-(3-(1-amino-1,3-dihydrospiro[indene-2,4′-piperidin]-1′-yl)-6-(3-(3-chloro-2-fluorophenoxy)prop-1-yn-1-yl)pyrazin-2-yl)methanol] | – | 14 | 15 | – | –
6 | COc1cccc(SCC#Cc2cnc(N3CCC4(CC3)Cc3ccccc3[C@H]4N)c(CO)n2)c1 [Compound A06, (S)-(3-(1-amino-1,3-dihydrospiro[indene-2,4′-piperidin]-1′-yl)-6-(3-((3-methoxyphenyl)thio)prop-1-yn-1-yl)pyrazin-2-yl)methanol] | 6.8 | 8 | 11 | – | –
7 | N[C@@H]1c2ccccc2CC12CCN(c1ncc(C#CCNc3ccccc3)nc1CO)CC2 [Compound A07, (S)-(3-(1-amino-1,3-dihydrospiro [indene-2,4′-piperidine]-1′-yl)-6-(3-(phenylamino)prop-1-yn-1-yl)pyrazin-2-yl) methanol] | 2.5 | 5.5 | 12 | – | –
8 | N[C@@H]1c2ccccc2CC12CCN(c1ncc(C#CCOc3ccc(C(F)(F)F)nc3)nc1CO)CC2 [Compound A70, (S)-(3-(1-amino-1,3-dihydrospiro[indene-2,4′-piperidin]-1′-yl)-6-(3-( (6-(trifluoromethyl)pyridin-3-yl)oxy)prop-1-yn-1-yl)pyrazin-2-yl)m ethanol] | – | 6.2 | 17 | – | –

The remaining lines, values ahead:

Row | IC50 (SHP2) [nM] | IC50 (leukemia cells MV-4-11; [2]) [nM] | IC50 [1, 3] [nM] | IC50 (leukemia cells MV-4-11; cultured for 120 hrs) [nM] | IC50 ([1]; ultra-low adsorption plate) [nM] | SMILES
9 | – | 4.4 | 4.3 | – | – | COc1ccccc1OCC#Cc1cnc(N2CCC3(CC2)Cc2ccccc2[C@H]3N)c(CO)n1 [Compound A10, (S)-(3-(1-amino-1,3-dihydrospiro[indene-2,4′-piperidin]-1′-yl)-6-(3-(2-methoxyphenoxy)prop-1-yn-1-yl)pyrazin-2-yl)methanol]
10 | – | 6.9 | 11 | – | – | CC(=O)c1cccc(OCC#Cc2cnc(N3CCC4(CC3)Cc3ccccc3[C@H]4N)c(CO)n2)c1 [Compound A16, (S)-1-(3-((3-(5-(1-amino-1,3-dihydrospiro[indene-2,4′-piperidin]-1′-yl)-6-(hydroxymethyl)pyrazin-2-yl)prop-2-yn-1-yl)oxy)phenyl)etha n-1-one]
11 | – | 25 | 51 | – | – | CC(=O)Nc1cccc(OCC#Cc2cnc(N3CCC4(CC3)Cc3ccccc3[C@H]4N)n(C)c2=O)c1 [Compound A34, (S)-N-(3-((3-(2-(1-amino-1,3-dihydrospiro[indene-2,4′-piperidin]-1′-yl)-1-methyl-6-oxo-1,6-dihydropyrimidin-5-yl)prop-2-yn-1-yl)oxy)phenyl)acetamide]
12 | – | 3 | 3.6 | – | – | CNC(=O)c1cccc(OCC#Cc2cnc(N3CCC4(CC3)Cc3ccccc3[C@H]4N)c(CO)n2)c1 [Compound A35, (S)-3-((3-(5-(1-amino-1,3-dihydrospiro[indene-2,4′-piperidine]-1′-yl)-6-(hydroxymethyl)pyrazin-2-yl)prop-2-yn-1-yl)oxy)-N-methylben zamide]
13 | – | 14 | 48 | – | – | CN(C)C(=O)c1cccc(OCC#Cc2cnc(N3CCC4(CC3)Cc3ccccc3[C@H]4N)c(CO)n2)c1 [Compound A36, (S)-3-((3-(5-(1-amino-1,3-dihydrospiro[indene-2,4′-piperidin]-1′-yl)-6-(hydroxymethyl)pyrazin-2-yl)prop-2-yn-1-yl)oxy)-N,N-dimethylb enzamide]
14 | 15 | – | – | – | – | NC(=O)c1nc(C#CCOc2ccc3c(c2)C(=O)NC3)cnc1N1CCC2(CC1)Cc1ccccc1[C@H]2N [Compound A42]
15 | – | 0.9 | 2.1 | – | – | N[C@@H]1c2ccccc2CC12CCN(c1ncc(C#CCNc3ccc4c(c3)NC(=O)CC4)nc1CO)CC2 [Compound A64, (S)-7-((3-(5-(1-amino-1,3-dihydrospiro[indene-2,4′-piperidin]-1′-yl)-6-(hydroxymethyl)pyrazin-2-yl)prop-2-yn-1-yl)amino)-3,4-dihydroq uinolin-2(1H)-one]
16 | – | 1 | 0.9 | – | – | N[C@@H]1c2ccccc2CC12CCN(c1ncc(C#CCOc3ccc4[nH]ncc4c3)nc1CO)CC2 [Compound A67, (S)-(6-(3-((1H-Indazol-5-yl)oxy)prop-1-yn-1-yl)-3-(1-amino-1,3-dihydrospiro[Indene-2,4′-piperidin]-1 ‘-yl)pyrazin-2-yl)methanol]
17 | – | 0.7 | 2.1 | – | – | Nc1nc2cc(OCC#Cc3cnc(N4CCC5(CC4)Cc4ccccc4[C@H]5N)c(CO)n3)ccc2o1 [Compound A69, (S)-(3-(1-amino-1,3-dihydrospiro[inden-2,4′-piperidin]-1′-yl)-6-(3-((2-Aminobenzo[d]oxazol-5-yl)oxy)prop-1-yn-1-yl)pyrazin-2-yl)met hanol]
18 | – | 1.8 | 3.5 | – | – | CNC(=O)c1ccc(OCC#Cc2cnc(N3CCC4(CC3)Cc3ccccc3[C@H]4N)c(CO)n2)cc1 [Compound A72, (S)-4-((3-(5-(1-amino-1,3-dihydrospiro[indene-2,4′-piperidin]-1′-yl)-6-(hydroxymethyl)pyrazin-2-yl)prop-2-yn-1-yl)oxy)-N-methylbenzamide]
